Measurements taken from PMC9380819 (ACS Omega, 2022).
“Also recorded” adds a separate entry of the source.

Assays:
[1] = target: SARS-CoV-2 spike RBD (331–528 amino acids) (Severe acute respiratory syndrome coronavirus 2, UniProt P0DTC2); assay: biochemical; type: binding
[2] = target: SARS-CoV-2 spike RBD: hACE2 (Severe acute respiratory syndrome coronavirus 2, UniProt P0DTC2); type: biochemical
SARS-CoV-2 [3] = type: cell-based
[4] = system: spike protein–ACE2 interaction; conditions: not tested against virally infected cells; cited from earlier work
[5] = system: SARS-CoV-2 (isolate USA WA1/2020); assay: microbe, parasite or virus in culture; type: cell-based; conditions: Severe acute respiratory syndrome coronavirus 2, Calu-3
SARS-CoV-2 [6] = conditions: 10 μM, after 48 h; cited from earlier work
in vitro = conditions: human
SARS-CoV-2 [7] = conditions: Vero cells; cited from earlier work
ACE2 = conditions: read-out: IC50 exopeptidase activity; cited from earlier work
SARS-CoV-2 [8] = conditions: cited from earlier work
SARS-CoV-2 [9] = conditions: cited from earlier work; remark: listed apart in the source

With `CC(C)NCC(O)COc1ccc(COCCOC(C)C)cc1` (racemic) [bisoprolol, (±)-Bisoprolol hemifumarate] the “binding to the RBD spike in MST” value [1] was “did not bind”, the “disruption of the interaction between the RBD and ACE2” value (from here on “disruption”) [2] was “none of the compounds tested were able to disrupt the interaction” and the “SARS-CoV-2 adsorption to Vero E6 cells” value (SARS-CoV-2 [3]) was “statistically decreased SARS-CoV-2 adsorption”.
For `O=c1c(O)c(-c2ccc(O)c(O)c2)oc2cc(O)cc(O)c12` [Quercetin], the IC50 [4] is listed as 7 µM.
Compound `CCC(CC)COC(=O)[C@H](C)N[P@](=O)(OC[C@H]1O[C@@](C#N)(c2ccc3c(N)ncnn23)[C@H](O)[C@@H]1O)Oc1ccccc1` [Remdesivir] has an EC50 [5] of 0.08 µM.
In the case of `CC(C)NCC(O)COc1ccc(CC(N)=O)cc1` (stereo not drawn) [atenolol], the “SARS-CoV-2 adsorption to Vero E6 cells” value (SARS-CoV-2 [3]) is given as “statistically decreased SARS-CoV-2 adsorption” and the “inhibition of SARS-CoV-2-induced cytotoxicity of Caco-2 cells” value (SARS-CoV-2 [6]) is given as 25.84%.
In the case of `CC(C)(C)NCC(O)COc1cccc2c1CCC(=O)N2` (stereo not drawn) [carteolol], the Kd [1] is reported as 0.459 ± 0.111 µM and the “disruption” value [2] is reported as “none of the compounds tested were able to disrupt the interaction”.
In the case of `COc1ccccc1OCCNCC(O)COc1cccc2[nH]c3ccccc3c12` (stereo not drawn) [carvedilol], the Kd [1] is reported as 0.364 ± 0.022 µM, the “disruption” value [2] is reported as “none of the compounds tested were able to disrupt the interaction” and the “SARS-CoV-2 adsorption to Vero E6 cells” value (SARS-CoV-2 [3]) is reported as “statistically decreased SARS-CoV-2 adsorption; also recorded: highest reduction on SARS-CoV-2 adsorption”. For the same compound, the EC50 [5] was 7.57 µM, the CC50 (in vitro) was 18.1 µM and the “inhibition of SARS-CoV-2-induced cytotoxicity of Caco-2 cells” value (SARS-CoV-2 [6]) was “did not show activity”.
For `Oc1c(I)cc(Cl)c2cccnc12` [cliquinol], the EC50 (SARS-CoV-2 [7]) is listed as 12.6 µM and the IC50 (ACE2) is listed as 5.36 µM.
For `CCCCC/C=C\C/C=C\CCCCCCCC(=O)O` [linoleic acid], the “disruption” value [2] was “not able to disrupt the interaction”.
For `CC(C)NCC(O)COc1cccc2[nH]ccc12` (stereo not drawn) [pindolol, Pindolol], the Kd [1] was 0.57 ± 0.144 µM and the “disruption” value [2] was “none of the compounds tested were able to disrupt the interaction”.
For `COc1ccc2nc3cc(Cl)ccc3c(Nc3cc(CN4CCCC4)c(O)c(CN4CCCC4)c3)c2n1` [pyronaridine], the “activity in A549-ACE2 cells” value (SARS-CoV-2 [8]) is given as “sub-micromolar” and the “efficacy in a mouse model infected with SARS-CoV-2” value (SARS-CoV-2 [9]) is given as “demonstrated efficacy”.
In the case of `CCN(CC)CCCC(C)Nc1c2ccc(Cl)cc2nc2ccc(OC)cc12` (stereo not drawn) [quinacrine], the “activity in A549-ACE2 cells” value (SARS-CoV-2 [8]) is listed as “sub-micromolar”.
For `CCN(CC)CCOc1ccc2c(c1)C(=O)c1cc(OCCN(CC)CC)ccc1-2` [tilorone], the “activity in A549-ACE2 cells” value (SARS-CoV-2 [8]) is given as “sub-micromolar”.
